Test [1] relates to CDK9 binding to HIV 5′-LTR in J-Lat cells (10.6). Put plainly: ChIP-qPCR of CDK9 binding to HIV 5'-LTR. The format is cell-based, human. The settings on record: PMA 50ng/ml, 24 hours. (In general: Quantitative PCR measures a nucleic acid by following its amplification.)
Experimental: Twenty-four hours later, cells were subjected to ChIP-qPCR using an anti-CDK9 antibody, with isotype IgG as the ChIP control.
24 hours after treatments, ChIP-qPCR was performed using a CDK9-specific antibody to examine the recruitment of CDK9 to HIV 5’-LTR in J-Lat cells. ChIP using an isotype IgG was included for normalization. Data were shown as fold change in the precipitated HIV 5′ LTR by the CDK9 antibody relative to the control isotype IgG for each treatment condition.
ChIP was performed using a method reported previously [41]. About 15 × 10⁶ J-Lat cells were treated according to the conditions described in the Main Text. After treatment, cells were collected, washed once with PBS, and resuspended in 10 mL PBS. To cross-link protein–DNA complexes, cells were fixed with 37% formaldehyde, and the reaction was quenched by adding 10Xglycine and incubating for 5 min at room temperature. The cells were then pelleted by centrifugation, and the pellets were incubated in ice-cold lysis buffer for 30 min. […] After extensive washing with the appropriate ChIP buffers, immune complexes were eluted, reverse cross-linked, and treated with proteinase K. DNA was purified using phenol–chloroform extraction and subsequently analyzed by qPCR. […] ChIP-qPCR results were quantified using the fold-enrichment method as previously reported [41].
For test [2], the system named is BRD4-knockout (KO) J-Lat cells. Put plainly: RT-qPCR of differentially expressed genes, BRD4-KO J-Lat cells. The format is cell-based, human. The settings on record: same treatments. How it is done:
To validate the RNA-Seq results, RT-qPCR analysis was performed on a subset of differentially expressed genes (DEGs) (Fig 3E). Eight representative DEGs were selected based on statistical significance (adjusted p values) and their involvement in key pathways identified by GSEA, including lipid metabolism/cholesterol biosynthesis (HMGCS1, SQLE, DHCR7) and cytokine signaling (ITK and DUSP8). Relative gene expression levels were normalized to the housekeeping gene GAPDH. […] As an additional control, RT-qPCR was also performed on RNA isolated from BRD4-knockout (KO) J-Lat cells that received the same treatments. The generation and characterization of BRD4-KO J-Lat cells were described previously.
RT-qPCR was performed as previously reported.

As to `CCCCCCCCCCCCCC(=O)O[C@@H]1[C@@H](C)[C@@]2(O)[C@@H](C=C(CO)C[C@]3(O)C(=O)C(C)=C[C@@H]23)[C@@H]2C(C)(C)[C@]12OC(C)=O` [PMA, reference compound], the “Increase in CDK9 occupancy at the HIV promoter relative to NC” value in test [1] was ~ 19 fold.
Consider `Cc1sc2c(c1C)C(c1ccc(Cl)cc1)=N[C@@H](CC(=O)OC(C)(C)C)c1nnc(C)n1-2` [JQ1, reference compound], for which the “Contrasting regulatory effects on representative DEGs in the absence of BRD4” value in test [2] is “largely abolished”.

The record behind these values is paper PMC12880750, “Mechanistic insights and in vivo HIV suppression by the BRD4-targeting small molecule ZL0580” (PLOS Pathogens, 2026).
